According to patent US6028182A, “Methylphosphonic acid esters, processes for their preparation, and their use” (Hoechst Aktiengesellschaft, priority 1993, dated 2000):
≈ marks a conversion by molar mass, not a printed value. Where two headings read alike, the source gives them in different places.

Assays:
[1] = Toxicity (cytotoxic action) in human T lymphocytes; format: cell-based; conditions: cem t lymphocytes
Procedure: (§1) In-vitro HIV tests were carried out with the dinucleoside α-hydroxymethylarylphosphonates 1-3. As a test system human T lymphocytes (CEM/O) were used. The compounds were additionally tested in a thymidine kinase-deficient T-lymphocyte strain (CEM/TK^-). The CEM/O cells were infected both with HIV-1 and with HIV-2. Before the tests, it was ensured that the compounds to be tested were free of free nucleoside (max. 0.5% HPLC) .

HIV-2 [2] = experiment: In-vitro anti HIV test, HIV-2, thymidine kinase-deficient T-lymphocyte strain CEM/TK^-; format: cell-based, HIV-2 in human T lymphocytes (CEM/TK^-); conditions: Human immunodeficiency virus 2, CEM-TK(-), read-out: Antiviral activity EC50 CEM/TK^- HIV-2
Procedure: as §1

HIV-2 [3] = experiment: In-vitro anti HIV test, HIV-2, human T lymphocytes CEM/O; format: cell-based, HIV-2 in human T lymphocytes (CEM/O); conditions: Human immunodeficiency virus 2, T-lymphocyte, read-out: Antiviral activity EC50 CEM/O HIV-2
Procedure: as §1

HIV-1 = experiment: In-vitro anti HIV test, HIV-1, human T lymphocytes CEM/O; format: cell-based, HIV-1 in human T lymphocytes (CEM/O); conditions: Human immunodeficiency virus 1, T-lymphocyte, read-out: Antiviral activity EC50 CEM/O HIV-1
Procedure: as §1

Structure (SMILES): Cc1cn([C@H]2CC[C@@H](COP(=O)(OC[C@@H]3CC[C@H](n4cc(C)c(=O)[nH]c4=O)O3)C(O)c3ccc(N(C)C)cc3)O2)c(=O)[nH]c1=O (some centres unmarked) [Compound 1a, bis(5'-O-2',3'-dideoxythymidine) hydroxy(4-dimethylaminophenyl)methylphosphonate]
- CC50 ([1]; read-out: Toxicity CC50): > 100 µg/mL
- EC50 (HIV-2 [2]): > 100 µg/mL
- EC50 (HIV-2 [3]; HIV-2, CEM/O cells): 7 ± 4.24 µg/mL (≈ 10.8 µM)
- EC50 (HIV-1; HIV-1, CEM/O cells): 3.25 ± 1.06 µg/mL (≈ 5.02 µM)

Structure (SMILES): COc1ccc(C(O)P(=O)(OC[C@@H]2CC[C@H](n3cc(C)c(=O)[nH]c3=O)O2)OC[C@@H]2CC[C@H](n3cc(C)c(=O)[nH]c3=O)O2)cc1 (some centres unmarked) [Compound 1b, bis(5'-O-2',3'-dideoxythymidine) hydroxy(4-methoxyphenyl)methylphosphonate]
- CC50 ([1]; read-out: Toxicity CC50): > 20 µg/mL
- EC50 (HIV-2 [2]): > 20 µg/mL
- EC50 (HIV-2 [3]; HIV-2, CEM/O cells): 0.55 ± 0.07 µg/mL (≈ 0.867 µM)
- EC50 (HIV-1; HIV-1, CEM/O cells): 0.5 µg/mL (≈ 0.788 µM)

Structure (SMILES): Cc1ccc(C(O)P(=O)(OC[C@@H]2CC[C@H](n3cc(C)c(=O)[nH]c3=O)O2)OC[C@@H]2CC[C@H](n3cc(C)c(=O)[nH]c3=O)O2)cc1 (some centres unmarked) [Compound 1c, bis(5'-O-2',3'-dideoxythymidine) hydroxy(4-methylphenyl)methylphosphonate]
- CC50 ([1]; read-out: Toxicity CC50): > 100 µg/mL
- EC50 (HIV-2 [2]): > 100 µg/mL
- EC50 (HIV-2 [3]; HIV-2, CEM/O cells): 10 µg/mL (≈ 16.2 µM)
- EC50 (HIV-1; HIV-1, CEM/O cells): 3.25 ± 1.06 µg/mL (≈ 5.25 µM)

Structure (SMILES): Cc1cn([C@H]2CC[C@@H](COP(=O)(OC[C@@H]3CC[C@H](n4cc(C)c(=O)[nH]c4=O)O3)C(O)c3ccccc3)O2)c(=O)[nH]c1=O (some centres unmarked) [Compound 1d, bis(5'-O-2',3'-dideoxythymidine) hydroxy(phenyl)methylphosphonate]
- CC50 ([1]; read-out: Toxicity CC50): > 100 µg/mL
- EC50 (HIV-2 [2]): > 100 µg/mL
- EC50 (HIV-2 [3]; HIV-2, CEM/O cells): 13.3 ± 2.9 µg/mL (≈ 22 µM)
- EC50 (HIV-1; HIV-1, CEM/O cells): 2.93 ± 1.85 µg/mL (≈ 4.85 µM)

Structure (SMILES): Cc1cn([C@H]2CC[C@@H](COP(=O)(OC[C@@H]3CC[C@H](n4cc(C)c(=O)[nH]c4=O)O3)C(O)c3ccc(Cl)cc3)O2)c(=O)[nH]c1=O (some centres unmarked) [Compound 1e, bis(5'-O-2',3'-dideoxythymidine) hydroxy(4-chlorophenyl)methylphosphonate]
- CC50 ([1]; read-out: Toxicity CC50): > 100 µg/mL
- EC50 (HIV-2 [2]): > 100 µg/mL
- EC50 (HIV-2 [3]; HIV-2, CEM/O cells): 4 µg/mL (≈ 6.26 µM)
- EC50 (HIV-1; HIV-1, CEM/O cells): 4 µg/mL (≈ 6.26 µM)

Structure (SMILES): Cc1cn([C@H]2CC[C@@H](COP(=O)(OC[C@@H]3CC[C@H](n4cc(C)c(=O)[nH]c4=O)O3)C(O)c3c(Cl)cccc3Cl)O2)c(=O)[nH]c1=O (some centres unmarked) [Compound 1f, bis(5'-O-2',3'-dideoxythymidine) hydroxy(2,6-dichlorophenyl)methylphosphonate]
- CC50 ([1]; read-out: Toxicity CC50): > 20 µg/mL
- EC50 (HIV-2 [2]): > 20 µg/mL
- EC50 (HIV-2 [3]): 2 µg/mL (≈ 2.97 µM)
- EC50 (HIV-1): 1.4 ± 0.85 µg/mL (≈ 2.08 µM)

Structure (SMILES): Cc1cn([C@H]2CC[C@@H](COP(=O)(OC[C@@H]3CC[C@H](n4cc(C)c(=O)[nH]c4=O)O3)C(O)c3ccc(C#N)cc3)O2)c(=O)[nH]c1=O (some centres unmarked) [Compound 1g, bis(5'-O-2',3'-dideoxythymidine) hydroxy(4-cyanophenyl)methylphosphonate]
- CC50 ([1]; read-out: Toxicity CC50): > 100 µg/mL
- EC50 (HIV-2 [2]): > 100 µg/mL
- EC50 (HIV-2 [3]; HIV-2, CEM/O cells): 7.7 ± 4.6 µg/mL (≈ 12.2 µM)
- EC50 (HIV-1; HIV-1, CEM/O cells): 3.93 ± 3.1 µg/mL (≈ 6.24 µM)

Structure (SMILES): Cc1cn([C@H]2CC[C@@H](COP(=O)(OC[C@@H]3CC[C@H](n4cc(C)c(=O)[nH]c4=O)O3)C(O)c3ccc([N+](=O)[O-])cc3)O2)c(=O)[nH]c1=O (some centres unmarked) [Compound 1h, bis(5'-O-2',3'-dideoxythymidine) hydroxy(4-nitrophenyl)methylphosphonate]
- CC50 ([1]; read-out: Toxicity CC50): > 100 µg/mL
- EC50 (HIV-2 [2]): > 100 µg/mL
- EC50 (HIV-2 [3]; HIV-2, CEM/O cells): 3 ± 1.41 µg/mL (≈ 4.62 µM)
- EC50 (HIV-1; HIV-1, CEM/O cells): 2.25 ± 0.35 µg/mL (≈ 3.46 µM)

Structure (SMILES): Cc1cn([C@H]2CC[C@@H](COP(=O)(OC[C@@H]3CC[C@H](n4cc(C)c(=O)[nH]c4=O)O3)C(O)c3ccc([N+](=O)[O-])cc3[N+](=O)[O-])O2)c(=O)[nH]c1=O (some centres unmarked) [Compound 1j, bis(5'-O-2',3'-dideoxythymidine) hydroxy(2,4-dinitrophenyl)methylphosphonate]
- CC50 [1]: > 100 µg/mL
- EC50 (HIV-2 [2]): > 100 µg/mL
- EC50 (HIV-2 [3]; HIV-2, CEM/O cells): 3.5 ± 0.71 µg/mL (≈ 5.04 µM)
- EC50 (HIV-1; HIV-1, CEM/O cells): 2 µg/mL (≈ 2.88 µM)

Structure (SMILES): COc1ccc(C(O)P(=O)(OC[C@@H]2C=C[C@H](n3cc(C)c(=O)[nH]c3=O)O2)OC[C@@H]2C=C[C@H](n3cc(C)c(=O)[nH]c3=O)O2)cc1 (some centres unmarked) [Compound 2b, bis(5'-O-2',3'-dideoxy-2',3'-didehydrothymidine)hydroxy(4-methoxyphenyl)methylphosphonate]
- CC50 ([1]; read-out: Toxicity CC50): > 20 µg/mL
- EC50 (HIV-2 [2]): > 100 µg/mL
- EC50 (HIV-2 [3]; HIV-2, CEM/O cells): 0.12 ± 0.06 µg/mL (≈ 0.19 µM)
- EC50 (HIV-1; HIV-1, CEM/O cells): 0.1 ± 0.065 µg/mL (≈ 0.159 µM)

Structure (SMILES): Cc1ccc(C(O)P(=O)(OC[C@@H]2C=C[C@H](n3cc(C)c(=O)[nH]c3=O)O2)OC[C@@H]2C=C[C@H](n3cc(C)c(=O)[nH]c3=O)O2)cc1 (some centres unmarked) [Compound 2c, bis(5'-O-2',3'-dideoxy-2',3'-didehydrothymidine)hydroxy(4-methylphenyl)methylphosphonate]
- CC50 ([1]; read-out: Toxicity CC50): > 20 µg/mL
- EC50 (HIV-2 [2]): > 100 µg/mL
- EC50 (HIV-2 [3]; HIV-2, CEM/O cells): 0.33 ± 0.24 µg/mL (≈ 0.537 µM)
- EC50 (HIV-1; HIV-1, CEM/O cells): 0.12 ± 0.064 µg/mL (≈ 0.195 µM)

Structure (SMILES): Cc1cn([C@H]2C=C[C@@H](COP(=O)(OC[C@@H]3C=C[C@H](n4cc(C)c(=O)[nH]c4=O)O3)C(O)c3ccccc3)O2)c(=O)[nH]c1=O (some centres unmarked) [Compound 2d, bis(5'-O-2',3'-dideoxy-2',3'-didehydrothymidine)hydroxy(phenyl)methylphosphonate]
- CC50 ([1]; read-out: Toxicity CC50): > 100 µg/mL
- EC50 (HIV-2 [2]): > 100 µg/mL
- EC50 (HIV-2 [3]; HIV-2, CEM/O cells): 0.19 ± 0.19 µg/mL (≈ 0.316 µM)
- EC50 (HIV-1; HIV-1, CEM/O cells): 0.16 µg/mL (≈ 0.266 µM)

Structure (SMILES): Cc1cn([C@H]2C=C[C@@H](COP(=O)(OC[C@@H]3C=C[C@H](n4cc(C)c(=O)[nH]c4=O)O3)C(O)c3ccc(Cl)cc3)O2)c(=O)[nH]c1=O (some centres unmarked) [Compound 2e, bis(5'-O-2',3'-dideoxy-2',3'-didehydrothymidine)hydroxy(4-chlorophenyl)methylphosphonate]
- CC50 ([1]; read-out: Toxicity CC50): > 100 µg/mL
- EC50 (HIV-2 [2]): > 100 µg/mL
- EC50 (HIV-2 [3]; HIV-2, CEM/O cells): 0.12 ± 0.06 µg/mL (≈ 0.189 µM)
- EC50 (HIV-1; HIV-1, CEM/O cells): 0.1 ± 0.05 µg/mL (≈ 0.157 µM)

Structure (SMILES): Cc1cn([C@H]2C=C[C@@H](COP(=O)(OC[C@@H]3C=C[C@H](n4cc(C)c(=O)[nH]c4=O)O3)C(O)c3c(Cl)cccc3Cl)O2)c(=O)[nH]c1=O (some centres unmarked) [Compound 2f, bis(5'-O-2',3'-dideoxy-2',3'-didehydrothymidine)hydroxy(2,6-dichlorophenyl)methylphosphonate]
- CC50 ([1]; read-out: Toxicity CC50): > 100 µg/mL
- EC50 (HIV-2 [2]): > 20 µg/mL
- EC50 (HIV-2 [3]; HIV-2, CEM/O cells): 0.12 ± 0.06 µg/mL (≈ 0.179 µM)
- EC50 (HIV-1; HIV-1, CEM/O cells): 0.056 ± 0.034 µg/mL (≈ 0.0837 µM)

Structure (SMILES): Cc1cn([C@H]2C=C[C@@H](COP(=O)(OC[C@@H]3C=C[C@H](n4cc(C)c(=O)[nH]c4=O)O3)C(O)c3ccc(C#N)cc3)O2)c(=O)[nH]c1=O (some centres unmarked) [Compound 2g, bis(5'-O-2',3'-dideoxy-2',3'-didehydrothymidine)hydroxy(4-cyanophenyl)methylphosphonate]
- CC50 ([1]; read-out: Toxicity CC50): > 100 µg/mL
- EC50 (HIV-2 [2]): > 100 µg/mL
- EC50 (HIV-2 [3]; HIV-2, CEM/O cells): 0.33 ± 0.24 µg/mL (≈ 0.528 µM)
- EC50 (HIV-1; HIV-1, CEM/O cells): 0.091 ± 0.065 µg/mL (≈ 0.145 µM)

Structure (SMILES): Cc1cn([C@H]2C=C[C@@H](COP(=O)(OC[C@@H]3C=C[C@H](n4cc(C)c(=O)[nH]c4=O)O3)C(O)c3ccc([N+](=O)[O-])cc3)O2)c(=O)[nH]c1=O (some centres unmarked) [Compound 2h, bis(5'-O-2',3'-dideoxy-2',3'-didehydrothymidine)hydroxy(4-nitrophenyl)methylphosphonate]
- CC50 ([1]; read-out: Toxicity CC50): > 100 µg/mL
- EC50 (HIV-2 [2]): > 100 µg/mL
- EC50 (HIV-2 [3]; HIV-2, CEM/O cells): 0.12 ± 0.06 µg/mL (≈ 0.186 µM)
- EC50 (HIV-1; HIV-1, CEM/O cells): 0.066 ± 0.048 µg/mL (≈ 0.102 µM)

Structure (SMILES): Cc1cn([C@H]2C=C[C@@H](COP(=O)(OC[C@@H]3C=C[C@H](n4cc(C)c(=O)[nH]c4=O)O3)C(O)c3ccc([N+](=O)[O-])cc3[N+](=O)[O-])O2)c(=O)[nH]c1=O (some centres unmarked) [Compound 2j, bis(5'-O-2',3'-dideoxy-2',3'-didehydrothymidine)hydroxy(2,4-dinitrophenyl)methylphosphonate]
- CC50 [1]: > 100 µg/mL
- EC50 (HIV-2 [2]): > 100 µg/mL
- EC50 (HIV-2 [3]; HIV-2, CEM/O cells): 0.33 ± 0.24 µg/mL (≈ 0.478 µM)
- EC50 (HIV-1; HIV-1, CEM/O cells): 0.16 µg/mL (≈ 0.232 µM)
